# Measured values taken from patent US8324346B2, “Bioactive keratin peptides” (Keraplast Technologies, Ltd., priority 2002, dated 2012).
# Test system: Normal human adult dermal fibroblasts
# Assay: Cell Titer96 Cell Proliferation Assay: mitogenic effects of synthesized peptides on human fibroblasts in culture for 5 days
# Format: cell-based
# Conditions: normalized to baseline controls
# Procedure: Normal human adult dermal fibroblasts were cultured in fibroblast growth medium (Clonetics™/BioWhittaker, San Diego, Calif., USA). Passage 5 cells were seeded into wells of 96 well plates at 5×10^3 cells/well. Test peptide solutions were prepared at approximately 1.5 mg/ml in sterile water. Small volumes of 0.1N NH4OH were added dropwise to peptide the peptide solutions to completely solubilize the peptides as recommended by the manufacturer (New England Peptide, Inc., Fitchburg, Miss., USA). The volume of NH4OH added to the solution was recorded and used to adjust beginning concentration. Solutions were serially diluted in fibroblast culture medium from 100-0.001 μg/ml, then added to the cells and cultured for 5 days. At day 3, test and control media were removed from each well by vacuum and replaced with fresh test or control solutions. Samples were evaluated in 4 replicate wells. Note in each plate, wells were selected at random to be used as baseline controls to account for any variation in cell seeding between plates. After 5 days, cell proliferation was assessed spectrophotometrically using the Cell Titer96® Cell Proliferation Assay (Promega Corp., Madison, Wis., USA). Absorbance values were normalized to baseline controls and expressed as percent increased (positive values) or decreased (negative values) proliferation.
Substance,"percent increased (positive values) or decreased (negative values) proliferation, concentration 0.001 ug/mL","percent increased (positive values) or decreased (negative values) proliferation, concentration 0.01 ug/mL","percent increased (positive values) or decreased (negative values) proliferation, concentration 0.1 ug/mL","percent increased (positive values) or decreased (negative values) proliferation, concentration 1 ug/mL","percent increased (positive values) or decreased (negative values) proliferation, concentration 10 ug/mL","percent increased (positive values) or decreased (negative values) proliferation, concentration 100 ug/mL"
VDAAPT (Consensus peptide) [H2N-VDAAPT-OH],1.6%,2.9%,−3.6%,4.5%,6.2%,13.3%
RLNVEV (Consensus peptide) [H2N-RLNVEV-OH],−2.6%,−6.0%,−4.3%,1.9%,6.4%,10.6%
TAPTV (Consensus peptide) [H2N-TAPTV-OH],5.2%,−1.2%,9.4%,8.2%,−2.7%,0.7%
DTAPTV (Consensus peptide) [H2N-DTAPTV-OH],3.2%,2.5%,6.7%,2.9%,2.2%,7.6%
LNVEV (Consensus peptide) [H2N-LNVEV-OH],−1.0%,0.9%,−10.8%,−11.4%,15.9%,13.9%
DLNRVL (Consensus peptide) [H2N-DLNRVL-OH],14.4%,11.5%,−0.4%,−2.8%,−3.5%,−1.2%
EVDAAPT (Consensus peptide) [H2N-EVDAAPT-OH],6.5%,8.9%,5.4%,7.1%,16.5%,4.1%
DAAPTV (Consensus peptide) [H2N-DAAPTV-OH],−3.0%,9.5%,7.5%,3.5%,−6.1%,−2.7%
TLRSP (Consensus peptide) [H2N-TLRSP-OH],4.7%,1.9%,7.7%,6.6%,14.7%,18.8%
LGDRL (Consensus peptide) [H2N-LGDRL-OH],10.3%,0.0%,0.6%,−4.8%,−3.1%,−3.8%
VDTAPTV (Consensus peptide) [H2N-VDTAPTV-OH],10.4%,7.9%,1.2%,0.7%,5.5%,−5.5%
APTVDLN (Consensus peptide) [H2N-APTVDLN-OH],1.2%,3.9%,2.8%,−6.0%,8.1%,6.7%
AAPTVD (Consensus peptide) [H2N-AAPTVD-OH],11.6%,7.9%,−1.1%,1.7%,−2.0%,1.6%
SPLGD (Consensus peptide) [H2N-SPLGD-OH],11.8%,1.7%,−4.2%,1.5%,−1.2%,−4.3%
VEVDAA (Consensus peptide) [H2N-VEVDAA-OH],11.0%,2.3%,−9.0%,−4.7%,−1.3%,−9.5%
AAPTV (Consensus peptide) [H2N-AAPTV-OH],11.0%,−0.2%,0.3%,2.8%,−5.9%,−5.9%
DLNQ (Consensus peptide) [H2N-DLNQ-OH],15.9%,8.9%,2.6%,−0.8%,−0.7%,−3.6%
TAPTVD (Consensus peptide) [H2N-TAPTVD-OH],0.3%,−0.9%,−0.5%,2.1%,4.0%,6.9%
VDTAPT (Consensus peptide) [H2N-VDTAPT-OH],9.0%,4.2%,6.8%,2.5%,−0.1%,4.4%
